Measured values published in PubChem BioAssay (NCI).
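All cell lines were grown in 96-well plates and treated with compound for 48 hours. GI50 is the concentration that inhibits growth by half. TGI: concentration producing complete growth inhibition.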

Legend:
Assay in all cases: NCI tumour cell line growth inhibition, 48 h
HS 578T breast = test system: HS 578T breast
UACC-257 melanoma = test system: UACC-257 melanoma
DU-145 prostate = test system: DU-145 prostate
ACHN renal = test system: ACHN renal
HCT-15 colon = test system: HCT-15 colon
OVCAR-4 ovarian = test system: OVCAR-4 ovarian
NCI-H522 lung = test system: NCI-H522 lung
SNB-78 CNS = test system: SNB-78 CNS
DMS 114 small cell lung = test system: DMS 114 small cell lung

| SMILES | TGI (HS 578T breast) | TGI (UACC-257 melanoma) | TGI (DU-145 prostate) | TGI (ACHN renal) | TGI (HCT-15 colon) | TGI (OVCAR-4 ovarian) | TGI (NCI-H522 lung) | GI50 (HS 578T breast) | GI50 (UACC-257 melanoma) | GI50 (DU-145 prostate) | GI50 (ACHN renal) | GI50 (HCT-15 colon) | GI50 (OVCAR-4 ovarian) | GI50 (NCI-H522 lung) | TGI (SNB-78 CNS) [µM] | TGI (DMS 114 small cell lung) [µM] |
| --- | --- | --- | --- | --- | --- | --- | --- | --- | --- | --- | --- | --- | --- | --- | --- | --- |
| NC(N)=NC(CC(=O)O)c1ccccc1 (stereo not drawn) | > 100 µM | > 100 µM | > 100 µM | > 100 µM | > 100 µM | > 100 µM | > 100 µM |  |  |  |  |  |  |  |  |  |
| COc1ccccc1C(=O)/C=C/c1cc2cccc(OC)c2[nH]c1=O | 10.8 µM | 9.26 µM | 0.714 µM | 2.15 µM | 1.73 µM | 8.37 µM | 2.16 µM | 0.0163 µM | 1.63 µM | 0.0331 µM | 0.0557 µM | 0.027 µM | 0.314 µM | 0.101 µM |  |  |
| CCCCCCCCCCCCc1ccc(C(=O)/C=C/C(=O)O)cc1 | 42.1 µM | 15.2 µM | 20.9 µM | 3.15 µM | 3.45 µM | 4.46 µM | 4.73 µM | 7.61 µM | 3.79 µM | 8.15 µM | 1.73 µM | 1.71 µM | 2.06 µM | 1.98 µM |  |  |
| O=[N+]([O-])c1ccc(Sc2ncccn2)c([N+](=O)[O-])c1 | 18 µM | 19.1 µM | 12.7 µM | 11.1 µM | 11.1 µM | 13.5 µM | 3.11 µM | 3.83 µM | 5.33 µM | 3.71 µM | 3.41 µM | 2.67 µM | 2.96 µM | 1.64 µM |  |  |
| ClC(=Nc1cccc2ccccc12)N(c1ccccc1)c1ccccc1 | > 100 µM | > 100 µM | > 100 µM | > 100 µM | > 100 µM | > 100 µM | > 100 µM |  |  |  |  |  |  |  |  |  |
| COc1cc[nH]c1/C=C1\C(=O)Nc2ccc(F)c(C#C[C@@H](O)[C@@H](N)[C@@H](C)O)c21 | 1.68 µM | 2.17 µM | 3.5 µM | 2.94 µM | 18.3 µM | 6.85 µM | 1.77 µM | 0.381 µM | 0.628 µM | 0.529 µM | 0.323 µM | 0.839 µM | 0.671 µM | 0.575 µM |  |  |
| O=C1C=C[C@]2(C[C@@H](c3cccc(C(F)(F)F)c3)O[C@@H](c3cccc(C(F)(F)F)c3)O2)O1 | 60.7 µM | 5.77 µM | 18.4 µM | 3.1 µM | 4.13 µM | 19.3 µM | 3.99 µM | 12.2 µM | 2.29 µM | 5.72 µM | 1.55 µM | 1.66 µM | 5.24 µM | 1.59 µM |  |  |
| O=S(=O)(c1ccc(NC(=S)N/N=C/c2ccccc2O)cc1)N1CCCCC1 | 40.5 µM | 14.5 µM | > 47.4 µM | 10.2 µM | 18.4 µM | > 71.4 µM | > 57.5 µM |  |  |  |  |  |  |  |  |  |
| O=c1c(Cl)nnc2sc3ccccc3n12 | > 100 µM |  | > 100 µM | 9.92 µM | 54.3 µM | > 100 µM | > 100 µM | 85.4 µM |  | 57 µM | 2.3 µM | 16.5 µM | 46.9 µM | > 100 µM |  |  |
| Cn1cc(-c2ccc(=O)n(Cc3cccc(-c4ncc(OCCN5CCOCC5)cn4)c3)n2)cn1 | > 100 µM | > 100 µM | > 100 µM | > 100 µM | > 100 µM | > 100 µM | > 100 µM | > 100 µM | 48.7 µM | > 100 µM | > 83.6 µM | > 100 µM | 33.5 µM | 74.8 µM |  |  |
| N#Cc1ccccc1NC(=O)C(=O)C(C(=O)c1ccccc1-c1ccccc1)C1OC(=O)c2ccccc21 (stereo not drawn) |  | 53.8 µM |  | 89.4 µM |  |  | 21 µM |  |  |  |  |  |  |  | 59.9 | 41.6 |
| CC(=O)c1ccc(Nc2cc(-n3ccnc3)nc3ccccc23)cc1 | > 100 µM | > 100 µM | > 100 µM | > 100 µM | > 100 µM | > 100 µM | > 100 µM | 33.4 µM | 33.4 µM | > 100 µM | 48.4 µM | 34.2 µM | > 100 µM | 87.9 µM |  |  |
| CCOC(=O)Cc1c(Cc2[nH]c(C(=O)OCc3ccccc3)c(CC(=O)OCC)c2CC(=O)OCC)[nH]c(C(=O)OCc2ccccc2)c1CC(=O)OCC |  |  |  | > 100 µM | > 100 µM |  | > 100 µM |  |  |  |  |  |  |  | > 100 | > 100 |
| O=C1c2ccccc2-c2c1c1ccccc1c(=O)n2CCO | > 100 µM | > 100 µM | > 100 µM | 10.4 µM | > 100 µM | > 100 µM | > 100 µM |  |  |  |  |  |  |  |  |  |
| Nc1ccn(C=C=CCO)c(=O)n1 | > 1000 µM | > 1000 µM | > 1000 µM | > 1000 µM | > 1000 µM | > 1000 µM | > 1000 µM | > 1000 µM | > 1000 µM | > 1000 µM | > 1000 µM | > 1000 µM | > 1000 µM | > 1000 µM |  |  |
| C[C@H]1[C@H](OC(=O)CCC(=O)O)O[C@@H]2O[C@]3(C)CC[C@H]4[C@H](C)CC[C@@H]1[C@@]24OO3 | 36.9 µM | > 100 µM | 20.1 µM | 14.4 µM | 16.1 µM | 28.1 µM | 5.43 µM | 0.986 µM | 3.36 µM | 6.48 µM | 0.921 µM | 0.107 µM | 1.28 µM | 0.365 µM |  |  |
| O/N=C1\CCc2cc(-c3nc(C4CCNCC4)[nH]c3-c3ccncc3)ccc21 | > 25 µM | > 25 µM | > 25 µM | > 25 µM | > 25 µM | > 25 µM | > 25 µM | > 25 µM | 5.17 µM | > 25 µM | > 25 µM | > 25 µM | > 25 µM | > 25 µM |  |  |
| COc1cccc(NC(=O)c2sc3nc4c(cc3c2N)CCCC4)c1 | 54.6 µM | > 100 µM | 56.1 µM | > 100 µM | > 100 µM | 39.9 µM | > 100 µM | 0.75 µM | 0.727 µM | 0.542 µM | 0.953 µM | 0.387 µM | 0.998 µM | 0.806 µM |  |  |
| CC1(C)CC(=O)C2=C(C1)NC(SSC1=C(C#N)C(c3ccccc3)C3=C(CC(C)(C)CC3=O)N1)=C(C#N)C2c1ccccc1 (stereo not drawn) | 68.1 µg/mL | 46 µg/mL | 126 µg/mL | 46.8 µg/mL | 48.8 µg/mL | 44.8 µg/mL | 47.7 µg/mL | 30.5 µg/mL | 25.4 µg/mL | 44.7 µg/mL | 26.1 µg/mL | 26.8 µg/mL | 23.6 µg/mL | 26.1 µg/mL |  |  |
